Laboratory results: publication PMC4783772, “PEGylated substrates of NSP4 protease: A tool to study protease specificity” (Scientific Reports, 2016)
Read-outs that look alike come from different tables or passages of the source. Square brackets hold non-standard residues; d marks the D form. Side chains are listed from the residue outwards. Peptide text beside a SMILES is read from it. * marks the point of attachment. 2Abz = Nc1ccccc1C(=O)O; Cbz = O=C(OCc1ccccc1)*; Dap = NC[C@H](N)C(=O)O; X1 = N=C(N)NCCOCC(=O)*; AEEA = NCCOCCOCC(=O)O

Tests used:
[1] = test system: hNSP4; test: Proteolytic cleavage pattern / stability with hNSP4 by HPLC; assay type: biochemical, human; conditions: hNSP4 14 nM, RP-HPLC; for stability of the cleaved fluorescent fragment with hNSP4: up to 48 h
Procedure: Figure 4 HPLC analysis of substrate 1 (1.97 μM) incubated with hNSP4 (14 nM) at different time points: 0, 15 min, 24 h and 48 h.
For each sample of diluted substrate (concentrations 1.97 × 10^−6 M), the appropriate amount of enzyme (1.46 × 10^−8 M) was added, and the solution was incubated for 5, 30, and 60 min. The progress of the proteolytic reaction was monitored by RP-HPLC. The individual peaks resulting from the hydrolysis reaction were collected and identified using the mass spectra which were recorded on a Biflex III MALDI TOF mass spectrometer (Bruker Daltonics, Germany) using α-cyano-4-hydroxycinnamic acid as a matrix.

[2] = molecular target: T1, human NSP4 (Homo sapiens, UniProt Q6UWY2); test: Determination of kinetic parameters (KM, kcat, kcat/KM) of substrate hydrolysis by NSP4; assay type: biochemical; conditions: for kcat/KM: calculated from kcat and KM values
T1 construct: made in house; host or cells: Pichia pastoris
Procedure: (§1) For the enzymatic studies, we used human NSP4 expressed in a Pichia pastoris expression system as described in ref. [15]. The NSP4 concentration used in the deconvolution of the library was […]. The bovine β-trypsin (Sigma Chem. Co., USA) concentration was determined by spectrophotometric titration with 4-nitrophenyl-4′-guanidinobenzoate (NPGB) at an enzyme concentration oscillating around 10^−6 M. Standardized trypsin solution was used to titrate BPTI (Sigma Chem. Co., USA) which in turn served to determine the solution concentrations of the produced NSP4. The substrate ABZ-Met-Phe-Pro-Arg-ANB-NH2 recently developed in our lab was used. The deconvolution of peptide libraries was carried out by the iterative solution method. The lyophilizates obtained for each sublibrary were dissolved in dimethyl sulfoxide (DMSO) to a final concentration of 5 mg/ml, and then diluted tenfold in an assay buffer. The fluorescence tests were performed using a FluoroStar OMEGA fluorescent microplate reader (BMG, Germany). The excitation and emission wavelengths were 320 nm and 410 nm for the ABZ/ANB. Enzymatic hydrolysis of the peptide was performed in 20 mM Tris-Cl buffer supplemented by 150 mM NaCl (pH 7.4) at 37 °C and continued over 30 min.
Assay conditions for the determination of the Michaelis constants (KM) and catalytic constants (kcat) were as noted above. The specificity constants (kcat/KM) were calculated from kcat and KM values. Measurements were performed with an enzyme concentration of 1.46 × 10^−9 M. Three to five measurements were carried out for each compound (systematic error expressed as a standard deviation never exceeded 20%). The calculated initial hydrolysis rates were used as a measure of the substrate activity of the investigated peptides. All details of kinetic studies and the method of calculating kinetic parameters have been described elsewhere.

[3] = molecular target: T1, human NSP4; test: Iterative deconvolution in solution of library ABZ-X4-X3-X2-Arg-ANB-NH2 against NSP4; assay type: biochemical; conditions: ABZ-Dap(O2(Cbz))-Dap(Cbz)-X2-Arg-ANB-NH2, 18 individual peptides; 3.4 × 10^−5 M, NSP4 1.46 × 10^−8 M (Figure 3); pH 7.4, 37 °C, 30 min; fluorescence
Procedure: In order to construct a novel type of internally quenched library, we used different monoprotected heterobifunctional PEG moieties to diversify a library based on a diaminopropionic acid scaffold (Fig. 1 presents the library formula and its chemical components). The library was synthesized using the mix and split method via Fmoc chemistry. The formation of Dap-PEG conjugates was performed on resin via a submonomeric method (one example of DAPEG-based molecule synthesis is presented in Fig. 2). Our goal was to investigate P2, P3, and P4 subsite preferences with a fixed P1 position occupied by an Arg residue. Each peptide in the library was flanked by a C-terminal amide of 5-amino-2-nitrobenozic acid (acceptor of fluorescence) and an N-terminal 2-amino benzoic acid (fluorescence donor) pair which allowed for simultaneous UV and fluorescence monitoring. Screening process was performed using an iterative mode of deconvolution in solution.
Figure 3 The deconvolution of the library (at average concentration 3.4 × 10^−5 M) with general formula ABZ-X4-X3-X2-Arg-ANB-NH2 against NSP4 (1.46 × 10^−8 M).
For the enzymatic studies, we used human NSP4 expressed in a Pichia pastoris expression system as described in ref. [15]. […] The fluorescence tests were performed using a FluoroStar OMEGA fluorescent microplate reader (BMG, Germany). […]

[4] = test system: cathepsin G (CatG); test: Selectivity: incubation with cathepsin G; assay type: biochemical, human; conditions: substrate 1.97 μM; CatG 10^−8 M, 8.7 nM (Figure 5A legend); pH 7.4, 37 °C, 30 min
Procedure: (§2) Figure 5 Incubation of substrate 1 (1.97 μM) with (A) neutrophil serine proteases (cathepsin G, elastase, and proteinase 3) at a concentration of 8.7 nM; (B) set of blood-associated proteases involving cathepsins and kallikreins.
as §1, with “Enzymatic hydrolysis of the peptide was performed in 20 mM Tris-Cl buffer supplemented by 150 mM NaCl (pH 7.4) at 37 °C and continued over 30 min.” left out

[5] = test system: human neutrophil elastase (HNE); test: Selectivity: incubation with neutrophil elastase; assay type: biochemical; conditions: substrate 1.97 μM; HNE 10^−8 M, 8.7 nM (Figure 5A legend); pH 7.4, 37 °C, 30 min
Procedure: as §2
as §1, with “Enzymatic hydrolysis of the peptide was performed in 20 mM Tris-Cl buffer supplemented by 150 mM NaCl (pH 7.4) at 37 °C and continued over 30 min.” left out

[6] = test system: proteinase 3 (PR3); test: Selectivity: incubation with proteinase 3; assay type: biochemical, human; conditions: substrate 1.97 μM; PR3 10^−8 M, 8.7 nM (Figure 5A legend); pH 7.4, 37 °C, 30 min
Procedure: as §2
as §1, with “Enzymatic hydrolysis of the peptide was performed in 20 mM Tris-Cl buffer supplemented by 150 mM NaCl (pH 7.4) at 37 °C and continued over 30 min.” left out

[7] = test system: KLK14; test: Selectivity: incubation with KLK14; assay type: biochemical, human; conditions: substrate 1.97 μM; Figure 5B; pH 7.4, 37 °C, 30 min
Procedure: as §2
as §1, with “Enzymatic hydrolysis of the peptide was performed in 20 mM Tris-Cl buffer supplemented by 150 mM NaCl (pH 7.4) at 37 °C and continued over 30 min.” left out

[8] = test system: set of proteases related to blood cells, including cathepsins and kallikreins; test: Selectivity: set of blood-associated proteases (cathepsins and kallikreins); assay type: biochemical; conditions: substrate 1.97 μM, enzymes 10^−8 M, Figure 5B, pH 7.4, 37 °C, 30 min
Procedure: as §2
as §1, with “Enzymatic hydrolysis of the peptide was performed in 20 mM Tris-Cl buffer supplemented by 150 mM NaCl (pH 7.4) at 37 °C and continued over 30 min.” left out

[9] = test system: hNSP4; test: Detection limit of hNSP4 with substrate 1; assay type: biochemical, human
Procedure: The incubation of substrate 1 with decreasing amounts of hNSP4 yielded a visible fluorescence (signal-to-noise ratio of 3:1) at 10^−11 M of the studied enzyme (Fig. S8).
as §1, with “Enzymatic hydrolysis of the peptide was performed in 20 mM Tris-Cl buffer supplemented by 150 mM NaCl (pH 7.4) at 37 °C and continued over 30 min.” left out

[10] = test system: NSP4; test: NSP4-mediated proteolysis of substrate 1 in the selectivity panel; assay type: biochemical, human; conditions: substrate 1 1.97 μM; Figure 5
Procedure: as §2
as §1, with “Enzymatic hydrolysis of the peptide was performed in 20 mM Tris-Cl buffer supplemented by 150 mM NaCl (pH 7.4) at 37 °C and continued over 30 min.” left out

[11] = qualitative statement
[12] = test system: NSP4; conditions: cited from earlier work
From the text: Table 2 Kinetic parameters of reported artificial substrates of NSP4. | column: kcat [s^−1]; KM [μM]; kcat/KM M^−1 × s^−1

[13] = 20 mM Tris-Cl, 150 mM NaCl, pH 7.4, 37 °C, NSP4 1.46 × 10^−9 M, fluorescence ex 320 / em 410 nm, three to five measurements, SD never exceeded 20%

T1 sequence (Q6UWY2 32-283): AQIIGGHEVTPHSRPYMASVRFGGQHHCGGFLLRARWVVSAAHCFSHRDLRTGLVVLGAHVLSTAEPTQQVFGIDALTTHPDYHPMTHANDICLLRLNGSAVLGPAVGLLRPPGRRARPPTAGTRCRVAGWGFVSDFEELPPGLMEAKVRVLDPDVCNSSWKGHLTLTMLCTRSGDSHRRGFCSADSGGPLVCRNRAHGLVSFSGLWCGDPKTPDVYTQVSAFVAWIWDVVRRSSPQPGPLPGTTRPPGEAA

With `N=C(N)NCCC[C@H](NC(=O)[C@H](CNC(=O)COCCNC(=N)N)NC(=O)[C@H](CNC(=O)OCc1ccccc1)NC(=O)[C@H](CNC(=O)COCCOCCNC(=O)OCc1ccccc1)NC(=O)c1ccccc1N)C(=O)O` [ABZ-Dap(O2(Cbz))-Dap(Cbz)-Dap(GO1)-Arg-OH] (H-[2Abz][Dap]([AEEA-Cbz])[Dap](Cbz)[Dap](X1)R-OH) the “stability of the cleaved fluorescent fragment with hNSP4” value [1] was “no further degraded up to 48 h” and the “stability of the cleaved fluorescent fragment with hNSP4” value ([1]; listed as cleaved N-terminal fragment of the peptidomimetic chain) was “exceptional proteolytic stability”.

“ABZ-Dap(O2(Cbz))-Dap(Cbz)-Dap(GO1)-Arg-ANB-NH2 [substrate 1]” gave a Km [2, 13] of 7.6 ± 0.5 µM, a kcat [2, 13] of 1 s⁻¹ and a kcat ([2]; 20 mM Tris-Cl, 150 mM NaCl, pH 7.4, 37 °C, NSP4 1.46 × 10^−9 M, fluorescence ex 320 / em 410 nm, three to five measurements, SD never exceeded 20%, listed as ABZ-Dap(O2(Cbz))-Dap(Cbz)-Dap(GO1)-Arg-ANB-NH2) of 1.0 ± 0.1 s⁻¹. The kcat/KM ([2]; pH 7.4, 37 °C, NSP4 1.46 × 10^−9 M) was 130000 M⁻¹ s⁻¹, the kcat/KM ([2]; pH 7.4, 37 °C, NSP4 1.46 × 10^−9 M, listed as ABZ-Dap(O2(Cbz))-Dap(Cbz)-Dap(GO1)-Arg-ANB-NH2) was 131,579 M^−1 × s^−1 and the kcat/KM ([2]; pH 7.4, 37 °C, NSP4 1.46 × 10^−9 M, listed as the developed compound) was “over 1.31 × 10^5 M^−1 × s^−1”. For the same compound, the “specificity (kcat/KM) relative to substrate selected by Kasperkiewicz et al. [19]” value ([2]; comparison with literature substrate, Kasperkiewicz et al.[19]) was 4 times higher, the “proteolysis / fluorescent intensity, peptides modified at X2” value [3] was “most susceptible for NSP4-mediated proteolysis” and the “proteolysis by CatG” value [4] was “no visible proteolysis”. For the same compound, the “proteolysis by HNE” value [5] was “no visible proteolysis”, the “proteolysis by PR3” value [6] was “no visible proteolysis” and the “degradation by KLK14 compared with NSP4” value [7] was “to a much lesser extend to degradation by KLK14”. The “cleavage by other blood-associated proteases” value [8] was “No other proteolytic enzyme at a concentration of 10^−8 M was able to cleave any of the peptide bonds”, the “detection limit in words” value ([9]; NSP4 detection with substrate 1) was “subnanomolar” and the “detection limit (hNSP4 concentration giving visible fluorescence)” value ([9]; signal-to-noise ratio of 3:1, constant amount of substrate 1, decreasing amounts of hNSP4, Fig. S8) was 10^−11 M. The “cleavage site by hNSP4” value ([1]; substrate 1 1.97 μM, 0, 15 min, 24 h, 48 h, MS identification) was “cleavage of the peptide bond located between Arg and ANB-NH2”, the “susceptibility to NSP4-mediated proteolysis” value [10] was “susceptible to NSP4-mediated proteolysis” and the solubility in water [11] was “excellent solubility in water”.

In the case of Ac-hCha-Phe(4-guanidine)-Oic-Arg-ACC, the Km ([12]; ref [19]) is given as 61 ± 9.1 µM, the kcat ([12]; ref [19]) is given as 2.0 ± 0.5 s⁻¹ and the kcat/KM ([12]; ref [19]) is given as 32,786 M^−1 × s^−1.

In the case of “MCA-PEG-Ile-Arg-Arg-Ser-Ser-Tyr-Ser-Phe-Lys(Dnp)-Lys”, the Km ([12]; ref [18]) is listed as 13.8 ± 3.3 µM, the kcat ([12]; ref [18]) is listed as 0.136 ± 0.008 s⁻¹ and the kcat/KM ([12]; ref [18]) is listed as 10,000 M^−1 × s^−1.
